For the first test, the target named is T1, USP25 (USP25-His6, Boston Biochem E-546) (Homo sapiens, UniProt Q9UHP3).
T1 construct: His6 (C); purchased Boston Biochem E-546
T1 sequence (Q9UHP3 1-1055): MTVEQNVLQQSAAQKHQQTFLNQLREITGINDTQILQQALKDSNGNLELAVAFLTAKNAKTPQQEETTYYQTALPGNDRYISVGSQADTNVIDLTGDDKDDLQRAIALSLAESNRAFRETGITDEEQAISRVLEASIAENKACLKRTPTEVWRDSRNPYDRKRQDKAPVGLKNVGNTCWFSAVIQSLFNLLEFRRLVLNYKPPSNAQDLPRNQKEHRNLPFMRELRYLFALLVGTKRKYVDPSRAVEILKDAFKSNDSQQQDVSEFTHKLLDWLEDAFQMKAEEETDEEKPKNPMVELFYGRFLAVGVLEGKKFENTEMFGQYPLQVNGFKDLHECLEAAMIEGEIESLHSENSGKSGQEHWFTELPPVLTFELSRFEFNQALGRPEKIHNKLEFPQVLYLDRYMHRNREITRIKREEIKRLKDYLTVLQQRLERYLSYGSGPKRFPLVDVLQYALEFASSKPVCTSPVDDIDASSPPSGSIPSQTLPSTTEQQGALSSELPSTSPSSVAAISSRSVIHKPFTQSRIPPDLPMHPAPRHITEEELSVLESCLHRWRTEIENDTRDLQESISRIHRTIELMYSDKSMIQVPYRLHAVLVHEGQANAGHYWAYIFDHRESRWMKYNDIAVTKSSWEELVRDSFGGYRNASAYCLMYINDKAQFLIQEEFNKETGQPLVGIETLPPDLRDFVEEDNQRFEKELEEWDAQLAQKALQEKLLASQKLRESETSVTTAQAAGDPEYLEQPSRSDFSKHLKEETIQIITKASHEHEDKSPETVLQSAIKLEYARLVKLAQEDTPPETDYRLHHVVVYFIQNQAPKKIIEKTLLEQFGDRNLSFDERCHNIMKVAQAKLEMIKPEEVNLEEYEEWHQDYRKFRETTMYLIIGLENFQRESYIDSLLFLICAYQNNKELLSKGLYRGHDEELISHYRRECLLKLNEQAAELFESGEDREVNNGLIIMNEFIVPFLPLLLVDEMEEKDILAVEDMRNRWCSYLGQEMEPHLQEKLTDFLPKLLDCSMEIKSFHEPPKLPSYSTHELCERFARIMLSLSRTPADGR
The experiment in a line: Ubiquitin-Rhodamine 110 Assay for USP25 Activity, Example A-3. Particulars: Ubiquitin-Rhodamine 110 assay, Example A-3; IC50 ranges; read-out: USP25 A-3 IC50. The test is classed as biochemical. The essentials:
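USP25-His6 ([…] final as stated) preincubated 30 min with compound (10-point, 25 μM to 1.3 nM), then Ub-Rh110 at 25 nM (<<Km) added in pH 8.0 Tris buffer with BME, BGG and Triton X-100. Reaction stopped after 45 min at room temperature with 10 mM citric acid; fluorescence read at 485/535 nm.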
In the case of `Cc1cc(C)c2c(N)c(C(=O)N[C@H]3COc4cc(N5CC6CCC(C5)N6)c(C#N)c(F)c4C3)sc2n1` [Example 241, 3-amino-N-[(3R)-6-cyano-7-{3,8-diazabicyclo[3.2.1]octan-3-yl}-5-fluoro-3,4-dihydro-2H-1-benzopyran-3-yl]-4,6-dimethylthieno[2,3-b]pyridine-2-carboxamide], the IC50 lay in the range of 50 to 200 nM.

The same test, now with this note: Ubiquitin-Rhodamine 110 assay, Example A-3; read-out: USP25 A-3 IC50 range.
For `Cc1ccc2c(N)c(C(=O)N[C@H]3CCc4nc(N5C6CC(N)CC5CS(=O)(=O)C6)ccc4C3)sc2n1` (stereo partly drawn) [Example 429, 3-amino-N-[(6S)-2-{7-amino-3,3-dioxo-3λ-thia-9-azabicyclo[3.3.1]nonan-9-yl}-5,6,7,8-tetrahydroquinolin-6-yl]-6-methylthieno[2,3-b]pyridine-2-carboxamide], the IC50 was in the range of 50 to 200 nM.

In the case of `Cc1ccc2c(N)c(C(=O)N[C@@H]3CCc4nc(N5C[C@@H](N)[C@H](C(F)F)C5)ncc4C3)sc2n1` [Example 382, 3-amino-N-[(6R)-2-[(3S,4R)-3-amino-4-(difluoromethyl)pyrrolidin-1-yl]-5,6,7,8-tetrahydroquinazolin-6-yl]-6-methylthieno[2,3-b]pyridine-2-carboxamide], the IC50 was greater than 2000 nM.

With `CO[C@@]12CCN[C@H]1CN(c1ccc3c(n1)CC[C@H](NC(=O)c1sc4nc(C)ccc4c1N)C3)C2` [Example 434, N-[(6S)-2-[(3aR,6aS)-3a-methoxy-octahydropyrrolo[2,3-c]pyrrol-5-yl]-5,6,7,8-tetrahydroquinolin-6-yl]-3-amino-6-methylthieno[2,3-b]pyridine-2-carboxamide], the IC50 is greater than 2000 nM. With `Cc1cnc2c(N)c(C(=O)N[C@H]3CCc4cc(N5CC(C(=O)O)C5)ccc4C3)sc2n1` [Example 6-4, (S)-1-(6-(7-amino-3-methylthieno[2,3-b]pyrazine-6-carboxamido)-5,6,7,8-tetrahydronaphthalen-2-yl)azetidine-3-carboxylic acid], the IC50 lay in the range of 200 to 2000 nM. As for `CO[C@@]1(C)CN(c2ccc3c(n2)CC[C@H](NC(=O)c2sc4nc(C)ccc4c2N)C3)C[C@H]1N` [Example 428, 3-amino-N-[(6S)-2-[(3S,4R)-4-amino-3-methoxy-3-methylpyrrolidin-1-yl]-5,6,7,8-tetrahydroquinolin-6-yl]-6-methylthieno[2,3-b]pyridine-2-carboxamide], the IC50 was 200 to 2000 nM. The same measure, in the same setting: the result for `CO[C@]12CCN[C@@H]1CN(c1ccc3c(n1)CC[C@H](NC(=O)c1sc4nc(C)ccc4c1N)C3)C2` [Example 435, N-[(6S)-2-[(3aS,6aR)-3a-methoxy-octahydropyrrolo[2,3-c]pyrrol-5-yl]-5,6,7,8-tetrahydroquinolin-6-yl]-3-amino-6-methylthieno[2,3-b]pyridine-2-carboxamide] reads 200 to 2000 nM. On to `COC[C@]1(N)CCN(c2ccc3c(n2)CC[C@H](NC(=O)c2sc4nc(C)ccc4c2N)C3)C1` [Example 389, 3-amino-N-[(6S)-2-[(3S)-3-amino-3-(methoxymethyl)pyrrolidin-1-yl]-5,6,7,8-tetrahydroquinolin-6-yl]-6-methylthieno[2,3-b]pyridine-2-carboxamide], for which the IC50 lay within 200 to 2000 nM. On to `COC[C@@H]1[C@@H](N)CCN1c1ccc2c(n1)CC[C@H](NC(=O)c1sc3nc(C)ccc3c1N)C2` [Example 420, 3-amino-N-[(6S)-2-[(2S,3S)-3-amino-2-(methoxymethyl)pyrrolidin-1-yl]-5,6,7,8-tetrahydroquinolin-6-yl]-6-methylthieno[2,3-b]pyridine-2-carboxamide], for which the IC50 was in the range of 50 to 200 nM. As to `Cc1ccc2c(N)c(C(=O)N[C@H]3CCc4nc(N5C[C@H]6COC[C@@H](C5)[C@@H]6N)ccc4C3)sc2n1` [Example 397], the IC50 was in the range of 200 to 2000 nM.

Consider `CCn1ccc2cc(C(=O)N[C@H]3CCc4nc(N5C[C@H](NC)[C@@H](OC)C5)ccc4C3)cnc21` [Example 402, 1-ethyl-N-[(6S)-2-[(3S,4S)-3-methoxy-4-(methylamino)pyrrolidin-1-yl]-5,6,7,8-tetrahydroquinolin-6-yl]-1H-pyrrolo[2,3-b]pyridine-5-carboxamide], for which the IC50 was greater than 2000 nM. Consider `Cc1ccc2c(N)c(C(=O)N[C@H]3CCc4nc(N5C[C@@H](N)[C@@]6(CCOC6)C5)ccc4C3)sc2n1` (single isomer, unassigned) [Example 431], for which the IC50 was greater than 2000 nM. Consider `Cc1ccc2c(N)c(C(=O)N[C@H]3CCc4nc(N5CC[C@@]6(C5)OCC[C@H]6N)ccc4C3)sc2n1` [Example 405, 3-amino-N-[(6S)-2-[(4R,5S)-4-amino-1-oxa-7-azaspiro[4.4]nonan-7-yl]-5,6,7,8-tetrahydroquinolin-6-yl]-6-methylthieno[2,3-b]pyridine-2-carboxamide], for which the IC50 lay in the range of 200 to 2000 nM.

Regarding `CN[C@H]1CN(c2ccc3c(n2)CC[C@H](NC(=O)c2sc4nc(C)ccc4c2N)C3)C[C@@H]1C(F)F` [Example 376, 3-amino-N-[(6S)-2-[(3S,4R)-3-(difluoromethyl)-4-(methylamino)pyrrolidin-1-yl]-5,6,7,8-tetrahydroquinolin-6-yl]-6-methylthieno[2,3-b]pyridine-2-carboxamide], the IC50 is greater than 2000 nM. Take `Cc1ccc2c(N)c(C(=O)N[C@H]3CCc4nc(N5CC[C@@]6(C5)OCC[C@@H]6N)ccc4C3)sc2n1` [Example 407, 3-amino-N-[(6S)-2-[(4S,5S)-4-amino-1-oxa-7-azaspiro[4.4]nonan-7-yl]-5,6,7,8-tetrahydroquinolin-6-yl]-6-methylthieno[2,3-b]pyridine-2-carboxamide]: the IC50 is greater than 2000 nM. Still for that read-out and setting: as for `Cc1ccc2c(N)c(C(=O)N[C@H]3CCc4nc(N5C[C@H]6COC[C@@]6(N)C5)ccc4C3)sc2n1` [Example 395, N-[(6S)-2-[(3aS,6aR)-3a-amino-hexahydro-1H-furo[3,4-c]pyrrol-5-yl]-5,6,7,8-tetrahydroquinolin-6-yl]-3-amino-6-methylthieno[2,3-b]pyridine-2-carboxamide], the figure is 200 to 2000 nM; as for `Cc1ccc2c(N)c(C(=O)N[C@H]3CCc4nc(N5C[C@@H]6CCN[C@H](C5)C6(F)F)ccc4C3)sc2n1` [Example 367, 3-amino-N-[(6S)-2-[(1R,5S)-9,9-difluoro-2,7-diazabicyclo[3.3.1]nonan-7-yl]-5,6,7,8-tetrahydroquinolin-6-yl]-6-methylthieno[2,3-b]pyridine-2-carboxamide], 50 to 200 nM.

The same test, now with this note: biochemical IC50 range, Ubiquitin-Rhodamine 110 assay, Example A-3; read-out: USP25 A-3.
On to `Cc1ccc2c(N)c(C(=O)N[C@H]3COc4cc(N5CCNCC5)cc(F)c4C3)oc2n1` [Example 169, 3-amino-N-[(3R)-5-fluoro-7-(piperazin-1-yl)-3,4-dihydro-2H-1-benzopyran-3-yl]-6-methylfuro[2,3-b]pyridine-2-carboxamide], for which the IC50 is greater than 2000 nM.

For the origin of these results see patent US12162888B2, “Carboxamides as ubiquitin-specific protease inhibitors” (Valo Early Discovery, Inc., priority 2018, dated 2024).
